Results published in US20240374579A1, “BICYCLIC PGDH INHIBITORS AND METHODS OF MAKING AND USING” (EPIRIUM BIO INC., priority 2021, published 2024).

How the values were obtained:
[1] = target: T1, 15-PGDH/HPGD (Homo sapiens, UniProt P15428); assay: hPGDH inhibitor screening biochemical assay; settings: 10 nM enzyme, 15 μM PGE2, 0.25 mM NAD, fluorescence ex/em 340/485 nm
T1 construct: purchased R&D System 5660-DH
T1 sequence (P15428 1-266): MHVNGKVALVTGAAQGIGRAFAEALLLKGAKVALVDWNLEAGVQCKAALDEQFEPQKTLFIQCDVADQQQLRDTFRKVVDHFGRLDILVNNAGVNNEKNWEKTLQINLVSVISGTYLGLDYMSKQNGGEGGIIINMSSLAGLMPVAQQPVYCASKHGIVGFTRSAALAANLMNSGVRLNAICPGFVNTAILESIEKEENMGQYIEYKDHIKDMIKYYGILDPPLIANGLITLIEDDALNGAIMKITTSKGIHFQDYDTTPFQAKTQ
Protocol: A hydroxyprostaglandin dehydrogenase inhibition screening biochemical assay can be performed to assess the synthesized inhibitors provided herein. Provided herein is an exemplary biochemical assay for hPGDH inhibitor screening.
The in vitro biochemical assay can be performed in white, 384 plates in total 20 μl reaction volume consisting of 10 nM of 15-PGDH/HPGD (R&D System #5660-DH), 15 μM Prostaglandin E2 (Sigma, Cat #P5640-10MG) and 0.25 mM β-Nicotinamide adenine dinucleotide sodium salt (Sigma, Cat #N0632-5G) made in reaction buffer (50 mM Tris-HCl, pH 7.5, 0.01% Tween 20) at 10-point dose response curve for test/tool compounds. Briefly, 5 μl (4×) of compounds solution and 5 μl (final concentration, 10 nM) of enzyme solution is added to white 384 well plates and incubated for 10 mins at 37° C. 5 μl (4×) of Prostaglandin E2 and 5 μl (4×) of β-Nicotinamide adenine dinucleotide sodium salt is added to the wells and incubated for 10 mins at room temperature. Fluorescence is recorded at ex/em=340 nm/485 nm. The percentage ([…]) inhibition of enzyme activity was determined relative to positive control (1% DMSO) and IC50 was calculated using GraphPad prism software (four parameter-variable slope equation).

[2] = target: T2, 15-PGDH (Homo sapiens, UniProt P15428); assay: A549 cell based assay: PGE2 in supernatant (HTRF), fold induction over IL-1β; settings: A549 cells; for fold induction at 0.001 µM: compound 0.001 μM plus IL-1β versus IL-1β only, read-out: PGE2-HTRF over IL1-β: Fold induction at 0.001 μM; for fold induction at 0.01 µM: compound 0.01 μM plus IL-1β versus IL-1β only, read-out: PGE2-HTRF over IL1-β: Fold induction at 0.01 μM; for fold induction at 0.1 µM: compound 0.1 μM plus IL-1β versus IL-1β only, read-out: PGE2-HTRF over IL1-β: Fold induction at 0.1 μM; for fold induction at 1 µM: compound 1 μM plus IL-1β versus IL-1β only, read-out: PGE2-HTRF over IL1-β: Fold induction at 1 μM
T2 construct: endogenous in cells; host or cells: A549 human lung adenocarcinoma cells
T2 sequence (P15428 1-266): T1 sequence (P15428 1-266)
Protocol: Cell Based Assay: 15-PGDH is highly expressed in resting human lung adenocarcinoma cells (A549) (Tong et al., 2006), and this cell line was used to assess 15-PGDH inhibition by MF-300Na in vitro.
In this assay, A549 cells are treated with interleukin (IL) 1β, which induces the expression of cycloxygenase-2 and the synthesis of PGE2 (Tong et al., 2006). In the studies evaluating test articles, thirty thousand A549 cells were seeded in 100 μL F12K completed media and incubated for 24 hours at 37° C. with 5% CO2 before being serum-starved for 24 hours. On the day of the experiment, buffer was changed to complete medium, and cells were incubated for 30 minutes with compounds prior to the addition of IL-1β (final concentration of 0.1-0.25 ng/mL) overnight at 37° C. with 5% CO2. Each concentration was run in triplicate. […] The PGE2 in the supernatant was detected and quantified using a Cisbio HTRF technology (Homogeneous Time-Resolved Fluorescence) kit (62P2APEG-62P2APEH) according to the manufacturer's recommendations, quantifying the fold induction of PGE2 of cells treated with IL-1b plus test article, versus treatment with IL-1b only.

Row | SMILES | IC50 [1] | fold induction at 0.001 µM [2] | fold induction at 0.01 µM [2] | fold induction at 0.1 µM [2] | fold induction at 1 µM [2]
1 | O=C(c1cnc2c(cnn2-c2ccc(-c3ncn[nH]3)cc2)c1)N1CCC(F)(F)CC1 [Compound C-6] | < 100 nM | 0.98 | 2.14 | 5.31 | 4.88
2 | C[C@H]1CCCN(C(=O)c2cnc3c(c2)nnn3-c2ccc(-c3nnc[nH]3)cc2)C1 [Compound C-19] | < 100 nM | 1.11 | 1.81 | 3.61 | 4.5
3 | C[C@H]1CCCN(C(=O)c2cnc3c(cnn3-c3ccc(N4CCOC4=O)nc3)c2)C1 [Compound C-25] | < 100 nM | 2.08 | 3.56 | 4.84 | 6.39
4 | C[C@H]1CCCN(C(=O)c2cnc3c(cnn3-c3ccc(N4CCOCC4)nc3)c2)C1 [Compound C-26] |  | 1.05 | 1.31 | 1.8 | 3.45
5 | C[C@H]1CCCN(C(=O)c2cnc3c(cnn3-c3ccc4nc(N)nn4c3)c2)C1 [Compound C-27] | < 100 nM | 1.04 | 2.06 | 3.36 | 4.68
6 | O=C(c1cnc2c(cnn2-c2cncc(N3CCOCC3)c2)c1)N1CCC(F)(F)CC1 [Compound C-28] |  | 1.04 | 0.76 | 2.06 | 3.61
7 | Cc1nc(-c2ccc(-n3nnc4cc(C(=O)N5CCC[C@H](C)C5)cnc43)cc2)no1 [Compound C-29] |  | 3.78 | 4.08 | 6.4 | 4.88
8 | CCOc1ccc(-n2nnc3cc(C(=O)N4CCC[C@H](C)C4)cnc32)cc1 [Compound C-30] |  | 1.16 | 1.68 | 2.5 | 3.79
9 | C[C@H]1CCCN(C(=O)c2cnc3c(cnn3-c3ccc(N4CCNC4=O)nc3)c2)C1 [Compound C-57] | < 100 nM | 4.07 | 4.94 | 4.94 | 4.86
10 | O=C(c1cnc2c(cnn2-c2ccc(-c3nnc[nH]3)cc2)c1)N1CCCC(F)(F)C1 [Compound C-59] |  | 0.91 | 3.09 | 4.74 | 4.32
11 | [O-][S+](CC1CC1)c1cnc2c(cnn2-c2ccc(-c3nnc[nH]3)cc2)c1 (stereo not drawn) [Compound C-95] | 100 to 1000 nM |  |  |  | 
12 | COCC(=O)Nc1cncc(-n2ncc3cc([S+]([O-])C4CCC(F)(F)CC4)cnc32)c1 (stereo not drawn) [Compound C-124] | < 100 nM |  |  |  | 
13 | O=C(O)c1ccc(-c2cnc3cc(C(=O)N4CCC(F)(F)CC4)ccn23)cc1 [Compound D-1, 4-(7-(4,4-difluoropiperidine-1-carbonyl)imidazo[1,2-a]pyridin-3-yl)benzoic acid] | < 100 nM |  |  |  | 
14 | O=C(O)c1ccc(-c2cnc3cc(C(=O)N4CCC(F)(F)CC4)ccn23)cn1 [Compound D-2, 5-(7-(4,4-difluoropiperidine-1-carbonyl)imidazo[1,2-a]pyridin-3-yl)picolinic acid] | 100 to 1000 nM |  |  |  | 
15 | O=C(c1ccn2c(-c3ccc(-c4ncn[nH]4)nc3)cnc2c1)N1CCC(F)(F)CC1 [Compound D-3, (3-(6-(1H-1,2,4-triazol-5-yl)pyridin-3-yl)imidazo[1,2-a]pyridin-7-yl)(4,4-difluoropiperidin-1-yl)methanone] | 100 to 1000 nM |  |  |  | 
16 | O=C(O)c1ccc(-n2cc3cc(C(=O)N4CCC(F)(F)CC4)ccc3n2)cc1 [Compound D-4, 4-(5-(4,4-difluoropiperidine-1-carbonyl)-2H-indazol-2-yl) benzoic acid] | 100 to 1000 nM |  |  |  | 
